Among the data in patent US10287301B2 (Achillion Pharmaceuticals, Inc., priority 2015, dated 2019) are IC50 values, retold here.

Each structure is given as a SMILES string.

The target of the first experiment is Human Factor D (Homo sapiens (Human), UniProt P00746). Nature of the experiment: Human Factor D Assay. The experiment is classed as biochemical.
Chain of Human Factor D (P00746 26-253): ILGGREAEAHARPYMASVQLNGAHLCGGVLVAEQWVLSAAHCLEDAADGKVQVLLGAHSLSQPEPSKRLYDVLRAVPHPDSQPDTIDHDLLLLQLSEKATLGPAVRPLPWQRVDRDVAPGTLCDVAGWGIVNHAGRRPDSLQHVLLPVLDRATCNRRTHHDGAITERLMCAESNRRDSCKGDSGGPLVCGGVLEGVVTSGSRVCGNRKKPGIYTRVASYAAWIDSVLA
Details: not given
As for the experimental part:
Human Factor D (purified from human serum, Complement Technology, Inc.) at 80 nM final concentration was incubated with test compound at various concentrations for 5 minutes at room temperature in 50 mM Tris, 1M NaCl, pH 7.5. A synthetic substrate Z-L-Lys-SBzl and DTNB (Ellman's reagent) are added to final concentrations of 100 μM each. […] IC50 values are calculated by nonlinear regression of complement Factor D reaction rates as a function of test compound concentration.
By IC50 is commonly meant the concentration needed to halve the response being measured. Turning to `CC(=O)c1cn(CC(=O)N2C[C@H](F)C[C@H]2C(=O)Nc2ccccc2-c2nc3ccccc3s2)c2ccc(-c3ccnnc3)cc12` [Compound 34, (2S,4R)-1-(2-(3-acetyl-5-(pyridazin-4-yl)-1H-indol-1-yl)acetyl)-N-(2-(benzo[d]thiazol-2-yl)phenyl)-4-fluoropyrrolidine-2-carboxamide], the IC50 was above 10000 nM.
Regarding `NC(=O)c1nn(CC(=O)N2C[C@H](F)C[C@H]2C(=O)NCc2cccnc2)c2ccc(-c3ccnnc3)cc12` [Compound 39, 1-(2-((2S,4R)-4-fluoro-2-(pyridin-3-ylmethylcarbamoyl)pyrrolidin-1-yl)-2-oxoethyl)-5-(pyridazin-4-yl)-1H-indazole-3-carboxamide], the concentration for half-maximal inhibition (IC50) was in the range of 1000 to 10000 nM.
`NC(=O)c1nn(CC(=O)N2C[C@H](F)C[C@H]2C(=O)Nc2cccnc2)c2ccc(-c3ccnnc3)cc12` [Compound 47, 1-(2-((2S,4R)-4-fluoro-2-(pyridin-3-ylcarbamoyl)pyrrolidin-1-yl)-2-oxoethyl)-5-(pyridazin-4-yl)-1H-indazole-3-carboxamide]: the IC50 is above 10000 nM.
For `CCN1Cc2ccc(NC(=O)[C@@H]3C[C@@H](F)CN3C(=O)Cn3cc(C(C)=O)c4cc(-c5ccnnc5)ccc43)cc2C1=O` [Compound 49, (2S,4R)-1-(2-(3-acetyl-5-(pyridazin-4-yl)-1H-indol-1-yl)acetyl)-N-(2-ethyl-3-oxoisoindolin-5-yl)-4-fluoropyrrolidine-2-carboxamide], the IC50 was 1000 to 10000 nM.

Staying with this experiment, now noted: Human Factor D 80 nM, substrate Z-L-Lys-SBzl; read-out: IC50.
For `CC(=O)c1cn(CC(=O)N2C[C@H](F)C[C@H]2C(=O)Nc2cccc(-c3ccccc3Cl)c2F)c2ccc(-c3cnc(N4CCCC4)nc3)cc12` [Compound 26, (2S,4R)-1-(2-(3-acetyl-5-(2-(pyrrolidin-1-yl)pyrimidin-5-yl)-1H-indol-1-yl)acetyl)-N-(2′-chloro-2-fluorobiphenyl-3-yl)-4-fluoropyrrolidine-2-carboxamide], the IC50 is below 1000 nM.
For `COc1ncc(-c2ccc3c(c2)c(C(C)=O)cn3CC(=O)N2C[C@H](F)C[C@H]2C(=O)Nc2cccc(-c3ccccc3Cl)c2F)cn1` [Compound 27, (2S,4R)-1-(2-(3-acetyl-5-(2-methoxypyrimidin-5-yl)-1H-indol-1-yl)acetyl)-N-(2′-chloro-2-fluorobiphenyl-3-yl)-4-fluoropyrrolidine-2-carboxamide], the IC50 is below 1000 nM.
As to `CC(=O)c1cn(CC(=O)N2C[C@H](F)C[C@H]2C(=O)Nc2cccc(-c3ccccc3Cl)c2F)c2ccc(C3=CCN(C(C)=O)CC3)cc12` [Compound 28, (2S,4R)-1-(2-(3-Acetyl-5-(1-acetyl-1,2,3,6-tetrahydropyridin-4-yl)-1H-indol-1-yl)acetyl)-N-(2′-chloro-2-fluoro-[1,1′-biphenyl]-3-yl)-4-fluoropyrrolidine-2-carboxamide], the IC50 was below 1000 nM.
`COc1ncc(-c2ccc3c(c2)c(C(N)=O)nn3CC(=O)N2C[C@H](F)C[C@H]2C(=O)Nc2cccc(-c3ccccc3Cl)c2F)cn1` [Compound 29, 1-(2-((2S,4R)-2-(2′-chloro-2-fluorobiphenyl-3-ylcarbamoyl)-4-fluoropyrrolidin-1-yl)-2-oxoethyl)-5-(2-methoxypyrimidin-5-yl)-1H-indazole-3-carboxamide]: the IC50 was below 1000 nM.
As for `COc1ncc(-c2ccc3c(c2)c(C(N)=O)nn3CC(=O)N2C[C@H](F)C[C@H]2C(=O)Nc2cccc(Cl)n2)cn1` [Compound 30, 1-(2-((2S,4R)-2-(6-chloropyridin-2-ylcarbamoyl)-4-fluoropyrrolidin-1-yl)-2-oxoethyl)-5-(2-methoxypyrimidin-5-yl)-1H-indazole-3-carboxamide], the IC50 is below 1000 nM.
Turning to `CC(=O)c1cn(CC(=O)N2C[C@H](F)C[C@H]2C(=O)Nc2cccc(-c3ccccc3Cl)c2F)c2ccc(N3CCN(c4ncccn4)CC3)cc12` [Compound 31, (2S,4R)-1-(2-(3-acetyl-5-(4-(pyrimidin-2-yl)piperazin-1-yl)-1H-indol-1-yl)acetyl)-N-(2′-chloro-2-fluorobiphenyl-3-yl)-4-fluoropyrrolidine-2-carboxamide], the IC50 is below 1000 nM.
Turning to `CC(=O)c1cn(CC(=O)N2C[C@H](F)C[C@H]2C(=O)Nc2cccc(-c3ccccc3Cl)c2F)c2ccc(N3CCN(c4ncc(F)cn4)CC3)cc12` [Compound 32, (2S,4R)-1-(2-(3-acetyl-5-(4-(5-fluoropyrimidin-2-yl)piperazin-1-yl)-1H-indol-1-yl)acetyl)-N-(2′-chloro-2-fluorobiphenyl-3-yl)-4-fluoropyrrolidine-2-carboxamide], the IC50 is below 1000 nM.
Turning to `CC(=O)c1cn(CC(=O)N2C[C@H](F)C[C@H]2C(=O)Nc2cccc(-c3ccccc3Cl)c2F)c2ccc(N3CCN(S(C)(=O)=O)CC3)cc12` [Compound 33, (2S,4R)-1-(2-(3-Acetyl-5-(4-(methylsulfonyl)piperazin-1-yl)-1H-indol-1-yl)acetyl)-N-(2′-chloro-2-fluoro-[1,1′-biphenyl]-3-yl)-4-fluoropyrrolidine-2-carboxamide], the IC50 is below 1000 nM.
Same read-out and setting: the same measure for `CC(=O)c1cn(CC(=O)N2C[C@H](F)C[C@H]2C(=O)NCc2ccccn2)c2ccc(-c3ccnnc3)cc12` [Compound 38, (2S,4R)-1-(2-(3-acetyl-5-(pyridazin-4-yl)-1H-indol-1-yl)acetyl)-4-fluoro-N-(pyridin-2-ylmethyl) pyrrolidine-2-carboxamide]: below 1000 nM; for `NC(=O)c1nn(CC(=O)N2C[C@H](F)C[C@H]2C(=O)Nc2ccccc2-c2nc3ccccc3s2)c2ccc(-c3ccnnc3)cc12` [Compound 41, 1-(2-((2S,4R)-2-(2-(benzo[d]thiazol-2-yl)phenylcarbamoyl)-4-fluoropyrrolidin-1-yl)-2-oxoethyl)-5-(pyridazin-4-yl)-1H-indazole-3-carboxamide]: above 10000 nM.
In the case of `CC(=O)c1cn(CC(=O)N2C[C@H](F)C[C@H]2C(=O)Nc2noc3cc(C(F)(F)F)ccc23)c2ccc(-c3ccnnc3)cc12` [Compound 42, (2S,4R)-1-(2-(3-acetyl-5-(pyridazin-4-yl)-1H-indol-1-yl)acetyl)-4-fluoro-N-(6-(trifluoromethyl)benzo[d]isoxazol-3-yl)pyrrolidine-2-carboxamide], the IC50 is above 10000 nM.
With `CC(=O)c1cn(CC(=O)N2C[C@H](F)C[C@H]2C(=O)NCc2cccc(Cl)c2)c2ccc(-c3ccnnc3)cc12` [Compound 44, (2S,4R)-1-(2-(3-acetyl-5-(pyridazin-4-yl)-1H-indol-1-yl)acetyl)-N-(3-chlorobenzyl)-4-fluoropyrrolidine-2-carboxamide], the IC50 was below 1000 nM.
`NC(=O)c1nn(CC(=O)N2C[C@H](F)C[C@H]2C(=O)NCc2cccc(Cl)c2)c2ccc(-c3ccnnc3)cc12` [Compound 45, 1-(2-((2S,4R)-2-(3-chlorobenzylcarbamoyl)-4-fluoropyrrolidin-1-yl)-2-oxoethyl)-5-(pyridazin-4-yl)-1H-indazole-3-carboxamide]: the IC50 is below 1000 nM.
For `CC(=O)c1cn(CC(=O)N2C[C@H](F)C[C@H]2C(=O)NCc2cc(F)cc(Cl)c2)c2ccc(-c3ccnnc3)cc12` [Compound 46, (2S,4R)-1-(2-(3-acetyl-5-(pyridazin-4-yl)-1H-indol-1-yl)acetyl)-N-(3-chloro-5-fluorobenzyl)-4-fluoropyrrolidine-2-carboxamide], the IC50 was below 1000 nM.
Take `CCN1Cc2ccc(NC(=O)[C@@H]3C[C@@H](F)CN3C(=O)Cn3nc(C(N)=O)c4cc(-c5ccnnc5)ccc43)cc2C1=O` [Compound 48, 1-(2-((2S,4R)-2-(2-ethyl-3-oxoisoindolin-5-ylcarbamoyl)-4-fluoropyrrolidin-1-yl)-2-oxoethyl)-5-(pyridazin-4-yl)-1H-indazole-3-carboxamide]: the IC50 was above 10000 nM.
The same measure, in the same setting: next, `NC(=O)c1nn(CC(=O)N2C[C@H](F)C[C@H]2C(=O)Nc2ccc3ncsc3c2)c2ccc(-c3ccnnc3)cc12` [Compound 50, 1-(2-((2S,4R)-2-(benzo[d]thiazol-6-ylcarbamoyl)-4-fluoropyrrolidin-1-yl)-2-oxoethyl)-5-(pyridazin-4-yl)-1H-indazole-3-carboxamide]: above 10000 nM; `NC(=O)c1nn(CC(=O)N2C[C@H](F)C[C@H]2C(=O)N[C@@H]2CCC[C@@H]2OCc2ccccc2)c2ccc(-c3ccnnc3)cc12` [Compound 51, 1-(2-((2S,4R)-2-((1R,2S)-2-(benzyloxy)cyclopentyl-carbamoyl)-4-fluoropyrrolidin-1-yl)-2-oxoethyl)-5-(pyridazin-4-yl)-1H-indazole-3-carboxamide]: above 10000 nM; `NC(=O)c1nn(CC(=O)N2C[C@H](F)C[C@H]2C(=O)NCc2nc3ccccc3s2)c2ccc(-c3ccnnc3)cc12` [Compound 52, 1-(2-((2S,4R)-2-(benzo[d]thiazol-2-ylmethylcarbamoyl)-4-fluoropyrrolidin-1-yl)-2-oxoethyl)-5-(pyridazin-4-yl)-1H-indazole-3-carboxamide]: above 10000 nM.
`CC(=O)c1cn(CC(=O)N2C[C@H](F)C[C@H]2C(=O)Nc2nc(-c3ccc4c(c3)CCCC4)cs2)c2ccc(-c3ccnnc3)cc12` [Compound 54, (2S,4R)-1-(2-(3-acetyl-5-(pyridazin-4-yl)-1H-indol-1-yl)acetyl)-4-fluoro-N-(4-(5,6,7,8-tetrahydro-naphthalen-2-yl)thiazol-2-yl)pyrrolidine-2-carboxamide]: the concentration for half-maximal inhibition (IC50) is above 10000 nM.
Turning to `NC(=O)c1nn(CC(=O)N2C[C@H](F)C[C@H]2C(=O)Nc2nc(-c3ccc4c(c3)CCCC4)cs2)c2ccc(-c3ccnnc3)cc12` [Compound 55, 1-(2-((2S,4R)-4-fluoro-2-(4-(5,6,7,8-tetrahydro-naphthalen-2-yl)thiazol-2-ylcarbamoyl)pyrrolidin-1-yl)-2-oxoethyl)-5-(pyridazin-4-yl)-1H-indazole-3-carboxamide], the IC50 is above 10000 nM.
Turning to `CC(=O)c1cn(CC(=O)N2C[C@H](F)C[C@H]2C(=O)Nc2nc(-c3c(C)nc4sccn34)cs2)c2ccc(-c3ccnnc3)cc12` [Compound 57], the IC50 was above 10000 nM.
